These results are taken from US20100247590A1, “Peptide-Based Systems For Delivery Of Cosmetic Agents” (JOHNSON & JOHNSON, priority 2009, published 2010).

A short description of test [1]: Peptide-mediated binding of Co-NTA magnetic beads to gray hair, visual rating on magnet. The note with it: Table 11; peptide 0.2 μM. Also noted: species or system human. The protocol: Approximately 5 mg of 5 mm long hair strands (90% gray, human) were transferred to 2-mL microcentrifuge tubes. Approximately 1 mL of TBST0.1 buffer (25 mM Tris, 150 mM NaCl, pH7.2, with 0.1% TWEEN®-20) or the same buffer including varying concentrations of HC263 peptide was added to the hair.
The mixtures were shaken on a Nutator for one hour at room temperature (˜22° C.). The hairs were washed three times with TBST0.5 buffer (25 mM Tris, 150 mM NaCl, pH 7.2, with 0.5% TWEEN®-20). After washing, the hairs were resuspended in 900 μL Talon buffer (50 mM sodium phosphate, pH 8.0, 300 mM sodium chloride, 0.01% TWEEN®-20). A subset of hair/peptide conjugates were washed additionally one time with 1 mL of 0.25% SLES (Sodium Lauryl Ether Sulfate) for 5 min at room temperature on the Nutator, then washed two times with 1 mL TBST0.1 buffer. Approximately 0.2 mg of TALON™ beads (DYNABEADS® TALONT™, Invitrogen, Catalog#101.01D) were washed twice with TALON™ buffer on the DYNAL® MPC™ magnet and added to each reaction in 100 μL TALON™ buffer. […]
Beads binding to the hair were expected to co-migrate on the sides of the tubes once applied to the magnet. The strength of binding was visually assessed and rated on a scale of 0 (little or no observed binding) to 5 (highest amount of observed binding). […]

For test [2] the following is noted: biotinylated peptide, streptavidin-HRP ELISA. The text has this:
See, e.g., Example 3 of U.S. Patent Application Publication 2005/022683; hereby incorporated by reference. The MB50 provides an indication of the strength of the binding interaction or affinity of the components of the complex. […] For example, a peptide with a nanomolar (nM) MBso binds more tightly than a peptide with a micromolar (μM) MB50.
The purpose of this Example was to determine the affinity and specificity of the various hair-binding peptides for hair and pigment surfaces, measured as MB50 values, using an ELISA assay. Each of the short, linear peptides were originally identified using phage display. Unless otherwise indicated, the sequences provided in Example 2 include a C-terminal lysine residue that was biotinylated for detection purposes.
The MB50 measurements of biotinylated peptides binding to hair and to red iron oxide particles (Unipure Red from Sensient Technologies, Milwaukee, Wis.) were made using hair bundles. The hair samples were assembled in bundles consisting of 100 hairs about 1 cm long which were bundled together using narrow tape at one end. The hair bundles were incubated in SUPERBLOCK® blocking buffer (Pierce Chemical Co., Rockford, Ill.) for 1 hour at room temperature (˜22° C.), followed by 3 washes with TBST (TBS in 0.05% TWEEN® 20). Peptide binding buffer consisting of various concentrations of biotinylated peptide in TBST and 1 mg/mL BSA was added to the hair bundles and incubated for 1 hour at room temperature, followed by 6 TBST washes. Then, the streptavidin-horseradish peroxidase (HRP) conjugate (Pierce Chemical Co., Rockford, Ill.) was added to each well (1.0 μg per well), and incubated for 1 h at room temperature, followed by 6 times of washes with TBST. All hair bundles were transferred to new tubes and then the color development and the absorbance measurements were performed following standard protocols. The results were plotted as A450 versus the concentration of peptide using GraphPad Prism 4.0 (GraphPad Software, Inc., San Diego, Calif.).

Test [3] can be described thus: Visual color assessment of hair treated with peptide then streptavidin-coated iron oxide beads (sequential coloring). The note with it: for perceptible color: Tables 17-19; for color intensity value (0-5, 0 no color deposition, 5 deepest color): Table 15, streptavidin-coated iron oxide beads 500 nm.
Description: A biotinylated peptide and streptavidin-bead system was used to color hair. Sequential deposition was achieved by the following process.
Miniature hair tresses of approximately 1 inch in length containing 100% unpigmented hair were placed in an aqueous solution with 20 mM of peptides (in DI water or Tris Buffered Saline, pH 7.2, 5-150 mM ionic strength), for up to one hour at room temperature, derived in accordance with the methods set forth herein.
Hair samples were pretreated by exposing the hair to different peptides. The peptide created a layer on the hair. Hair samples with a peptide layer were rinsed with SLES solution to remove excess peptide. Next, the peptide-treated hair samples were incubated with streptavidin tagged iron oxide particles (Bangs Laboratories, Inc., Fishers, Ind.; Ademtech, Inc., Pessas, France) to allow the binding between biotin and streptavidin or between the streptavidin-binding domain in HC260 and streptavidin. Particles were purchased in dispersed form and were diluted to 0.025-1 wt % by adding a specified amount of either DI water or Coupling Buffer from Ademtech. Binding was permitted to take place during an incubation period for up to 24 hours at room temperature (˜22° C.) in the dark. Samples were continuously inverted end-over-end during the binding duration incubation period.
A color scale for the associated color intensity of iron oxide treated hair was defined as (0-5), where 0 is no color deposition and 5 is the deepest color.
The conditions of test [4]: 200 nm streptavidin-coated iron oxide beads; FIGS. 4A and 4B. The text has this: Humans can perceive color that is in about the 400 nm to 700 nm range. Ultraviolet light, i.e., 200-400 nm is not visible to humans.
The conditions of test [5]: fluorescence microscopy, FIG. 1.
Description: A biotinylated peptide and streptavidin-coated bead system was used to illustrate the coupling of beads to hair in accordance with the methods and compositions of this invention.
A human hair sample was placed in an aqueous solution containing 20 mM of HCP5 dimer peptide (SEQ ID NO: 204) derived in accordance with the methods set forth herein. […] The HCP5 dimer was purchased from American Peptide Co., Inc. (Sunnyvale, Calif.) in both biotinylated (SEQ ID NO: 205) and non-biotinylated (SEQ ID NO: 204) versions (a single lysine residue was added to the C-terminus of the biotinylated version to facilitate biotin coupling).
Hair samples were pretreated by exposing the hair samples to either the biotinylated or the non-biotinylated peptide. Ten strands of natural dark brown hair (International Hair Importers), three inches in length, were pre-washed with 2% SLES for 30 seconds, then rinsed extensively with DI water. The hair strands were then immersed in 10 mL of a 5-20 micromolar solution of peptide for up to one hour. Ten hair samples were exposed to the biotinylated peptide and ten hair samples were exposed to non-biotinylated peptide. […]
After the incubation period ended, fluorescence microscopy was used to view the binding of 40 nm fluorescently-labeled streptavidin-coated polystyrene particles to hair.
Another test addresses streptavidin (Streptomyces avidinii, UniProt P22629). In words: biochemical.
The mark [6] stands for this setting: Table 17, 200 nm particles, initial, before washing with water.
[7] abbreviates: Table 18, 200 nm particles, after washing with water.
[8] abbreviates: Table 18, 500 nm particles, after washing with water.
Setting [9] is: Table 19, 200 nm particles, after 0.25% SLES wash.

pKd: −log10 of the molar value. Like-named read-outs stand apart in the source and are kept apart here. No end group written: not given here.

streptavidin, sequence (P22629 25-183): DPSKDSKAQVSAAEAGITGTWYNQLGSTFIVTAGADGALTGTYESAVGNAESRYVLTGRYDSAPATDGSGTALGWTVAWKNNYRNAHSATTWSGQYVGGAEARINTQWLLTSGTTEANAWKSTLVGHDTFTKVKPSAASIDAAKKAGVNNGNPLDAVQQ

Consider “GSDPG-Gray3-GGG-Gray3-GGGGSGGGGSG-HHHHHH (GSDPGHDHKNQKETHQRHAAGGGHDHKNQKETHQRHAAGGGGSGGGGSGHHHHHH) [HC214]”, for which, in test [1], the “Strength of binding (5 highest, 0 lowest)” value was determined as 0.
With THSTHNHGSPRHTNADAGNPK-Biotin [HCP1], the MB50 in test [2] (substrate 90% gray hair) came to 0.044 µM; in test [2] (substrate Unipure Red particle) it was 9.8 µM.
Consider HCP5-GGSGPGSGG-HCP5-K [(HCP5)2-biotin], for which the perceptible color result in test [3] (200 nm beads) is “did not exhibited perceptible color”; in test [3] (500 nm beads) it was “exhibited perceptible color”. Besides, the “color intensity value (0-5, 0 no color deposition, 5 deepest color)” value in test [3] turned out to be 4. Moreover, the “color measurement (0-5 color scale)” value is reported as 0 in test [3] (setting [6]), 0 in test [3] (setting [7]), 3 in test [3] (setting [8]) and 0 in test [3] (setting [9]). Moreover, the “deposition of beads on hair” value in test [4] is listed as 200 nm beads were deposited on the hair. In addition, the “binding of 40 nm fluorescently-labeled streptavidin-coated polystyrene particles to hair” value in test [5] is given as “bound the particles to hair”.
Take TPPELAHTPHHLAQTRLTDRK-Biotin [Hair4]: the MB50 came out at 0.15 µM in test [2] (substrate 90% gray hair) and 5 µM in test [2] (substrate Unipure Red particle).
For HINKTNPHQGNHHSEKTQRQK-Biotin [MEA4], in that order: 0.061 µM and 8.7 µM.
For AQSQLPDKHSGLHERAPQRYK-Biotin [Hair2], in that order: 0.25 µM and 6.8 µM.
On to MLSENWLTNHPQN [SB33N], for which the pKd on streptavidin is about 4.00.
As to “GSDPG-IB5A-GGGGSGGGGSG-HHHHHH (GSDPGTPPELLHGAPRSGGGGSGGGGSGHHHHHH) [HC205]”, the “Strength of binding (5 highest, 0 lowest)” value in test [1] is listed as 0.
Regarding HCP5-GGSGPGSGG-HCP5 [(HCP5)2], in test [3], the “color intensity value (0-5, 0 no color deposition, 5 deepest color)” value was determined as 0. In addition, in test [3] (Table 16, streptavidin-coated iron oxide beads, sequential coloring method), the “color scale score (0-5)” value came to 0. Besides, the “color measurement (0-5 color scale)” value amounted to 0 in test [3] (setting [6]); 0 in test [3] (Table 17, 500 nm particles, initial, before washing with water); 0 in test [3] (setting [7]); 0 in test [3] (setting [8]); 0 in test [3] (setting [9]); 0 in test [3] (Table 19, 500 nm particles, after 0.25% SLES wash).
